Laboratory results taken from patent US12643877B2, “Substituted tetrahydroisoquinoiline derivative as a D1 positive allosteric modulator” (UCB Biopharma SRL, priority 2019, dated 2026).
Values joined by “and” are separate entries in the source; they are usually repeats but may differ in a detail not shown here. Equal values may be shown once.

Legend:
dopamine D1 receptor [1] = biological target: T1, dopamine D1 receptor (Homo sapiens, UniProt P21728); experiment: cAMP HTRF activation assay (absence of dopamine); assay type: cell-based; conditions: L-M(TK-), 10 μM compound, LMtk cells expressing D1, read-out: % of activation (compared to dopamine maximal response)
T1 construct: host or cells: LMtk (Ltk-) mouse fibroblast cells
T1 sequence (P21728 whole entry): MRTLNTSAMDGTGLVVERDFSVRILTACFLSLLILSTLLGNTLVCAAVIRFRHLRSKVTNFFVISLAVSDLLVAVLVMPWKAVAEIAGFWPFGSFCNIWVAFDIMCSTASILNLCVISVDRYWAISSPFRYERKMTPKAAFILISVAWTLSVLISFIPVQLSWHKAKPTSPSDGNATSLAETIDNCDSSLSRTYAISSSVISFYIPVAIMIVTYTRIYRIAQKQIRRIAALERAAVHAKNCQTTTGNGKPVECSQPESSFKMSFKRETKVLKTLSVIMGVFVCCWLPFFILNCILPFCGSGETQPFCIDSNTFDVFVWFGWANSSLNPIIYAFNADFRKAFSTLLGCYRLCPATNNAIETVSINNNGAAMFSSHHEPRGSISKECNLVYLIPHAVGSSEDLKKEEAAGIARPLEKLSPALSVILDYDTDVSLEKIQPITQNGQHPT
Excerpt: (§1) Assays have been designed to measure the effects of compounds in accordance with the present invention in the absence of dopamine (“activation assay”) and in the presence of dopamine (“potentiation assay”).
The activation assay measures the stimulation of the production of cyclic adenosinemonophosphate (cAMP) in the Homogeneous Time Resolved Fluorescent (HTRF) assay, with the maximum increase in cAMP by increasing concentrations of the endogenous agonist, dopamine, defined as 100% activation.
(§2) Cells were cultured at 37° C. in a humidified atmosphere of 5% CO2. […]
The measurement of changes in intracellular cyclic adenosinemonophopshpate (cAMP) was determined using the HTRF cAMP dynamic assay kit from CisBio (Codolet, France). […] The tracer binding is determined by an anti-cAMP antibody labeled with cryptate. The effects of the compound alone (agonism) was determined by performing the assay in the absence of dopamine, whilst the effect of the compound as a positive allosteric modulator (PAM) was determined in the presence of an EC20 concentration of dopamine. […] This is then incubated for a further 60 min at room temperature and changes in HTRF fluorescent emission ratio determined according to manufacturer's instructions using an Envision plate reader (Perkin Elmer, Zaventem, Belgium) with laser excitation. […]

dopamine D1 receptor [2] = biological target: T1, dopamine D1 receptor; experiment: cAMP HTRF potentiation assay (presence of EC20 dopamine); assay type: cell-based
Excerpt: as §1
The potentiation assay measures the ability of compounds to increase the levels of cAMP produced by a low-threshold concentration of dopamine. The concentration of dopamine used ([EC20]) is designed to produce 20% stimulation compared to the maximal response (100%) seen with increasing the concentration of dopamine. To measure this potentiation increasing concentrations of the compound with the [EC20] of dopamine are incubated and the potentiation is measured as increases in cAMP production and concentration of compound which produces 50% of the potentiation of the cAMP levels is measured.
as §2
The measurement of changes in intracellular cyclic adenosinemonophopshpate (cAMP) was determined using the HTRF cAMP dynamic assay kit from CisBio (Codolet, France). […] The tracer binding is determined by an anti-cAMP antibody labeled with cryptate. The effects of the compound alone (agonism) was determined by performing the assay in the absence of dopamine, whilst the effect of the compound as a positive allosteric modulator (PAM) was determined in the presence of an EC20 concentration of dopamine. […]

[3] = biological target: T2, human GABAA receptor α1,β2 and γ2 subunits (Homo sapiens, UniProt P14867+P18507+P47870); experiment: Automated patch clamp studies on GABAA receptor cells; assay type: cell-based; conditions: 10 μM compound; GABA 15 μM; CHO-K1 cells; read-out: percentage of inhibition of the GABAA receptor
T2 construct: expressed in transfected cells; host or cells: CHO-K1 cells
T2 sequence (P14867 28-456): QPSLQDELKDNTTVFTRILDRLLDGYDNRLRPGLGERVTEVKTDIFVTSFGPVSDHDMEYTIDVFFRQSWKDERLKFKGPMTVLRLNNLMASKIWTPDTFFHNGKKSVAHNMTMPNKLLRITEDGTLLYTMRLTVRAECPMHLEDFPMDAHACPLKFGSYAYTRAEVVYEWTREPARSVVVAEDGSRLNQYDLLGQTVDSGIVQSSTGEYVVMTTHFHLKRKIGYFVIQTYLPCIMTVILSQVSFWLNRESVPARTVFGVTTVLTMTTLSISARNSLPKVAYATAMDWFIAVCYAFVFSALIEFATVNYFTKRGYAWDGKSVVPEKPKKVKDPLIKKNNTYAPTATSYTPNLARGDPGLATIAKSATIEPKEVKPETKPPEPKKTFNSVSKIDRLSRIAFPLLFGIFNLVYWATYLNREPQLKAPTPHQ
T2 sequence (P47870 25-512 limits assumed): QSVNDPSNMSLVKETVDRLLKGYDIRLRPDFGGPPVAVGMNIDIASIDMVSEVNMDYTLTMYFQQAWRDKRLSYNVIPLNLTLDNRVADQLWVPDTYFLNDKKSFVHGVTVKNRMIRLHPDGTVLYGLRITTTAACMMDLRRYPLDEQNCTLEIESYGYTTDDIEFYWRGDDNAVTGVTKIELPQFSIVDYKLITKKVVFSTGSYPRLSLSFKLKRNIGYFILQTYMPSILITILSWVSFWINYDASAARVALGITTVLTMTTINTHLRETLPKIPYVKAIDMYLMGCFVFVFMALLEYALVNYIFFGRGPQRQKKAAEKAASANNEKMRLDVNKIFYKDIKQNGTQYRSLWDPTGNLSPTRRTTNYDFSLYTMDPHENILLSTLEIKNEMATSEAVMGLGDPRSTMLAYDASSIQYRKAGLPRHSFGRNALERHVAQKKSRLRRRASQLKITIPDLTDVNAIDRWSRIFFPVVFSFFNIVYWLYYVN
T2 sequence (P18507 40-475): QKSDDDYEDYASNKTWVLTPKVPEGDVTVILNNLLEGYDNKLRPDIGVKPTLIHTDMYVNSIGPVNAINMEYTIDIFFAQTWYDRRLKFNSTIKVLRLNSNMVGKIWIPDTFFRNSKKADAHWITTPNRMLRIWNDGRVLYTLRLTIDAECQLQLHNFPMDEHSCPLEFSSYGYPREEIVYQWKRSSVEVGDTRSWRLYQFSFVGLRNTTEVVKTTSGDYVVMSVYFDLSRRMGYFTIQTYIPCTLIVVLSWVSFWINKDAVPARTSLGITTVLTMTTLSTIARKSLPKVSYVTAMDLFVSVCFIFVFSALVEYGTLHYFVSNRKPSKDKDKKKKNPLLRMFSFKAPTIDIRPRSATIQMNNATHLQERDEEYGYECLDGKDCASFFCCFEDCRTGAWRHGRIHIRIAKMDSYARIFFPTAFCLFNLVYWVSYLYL
Experimental: CHO-K1 cells stably expressing human GABAA receptor α1,β2 and γ2 subunits were used. The cells were harvested using trypsin and maintained in serum-free medium at room temperature. The cells were washed and re-suspended in extracellular solution before testing.
Experiments on human GABAA (α1β2γ2) channels were conducted using an automated patch clamp assay (IonFlux™ HT). Compounds were tested at 3 concentrations (0.1, 1, and 10 μM) in 3 to 4 cells. The external solution for recording GABAA currents was composed of sodium chloride 137 mM, potassium chloride 4 mM, calcium chloride 1.8 mM, magnesium chloride 1 mM, HEPES 10 mM, and glucose 10 mM. Both external and internal solutions were titrated with NaOH or KOH to obtain a pH of 7.35 or 7.3, respectively. The internal pipette solution contained potassium fluoride 70 mM, potassium chloride 60 mM, sodium chloride 70 mM, HEPES 5 mM, EGTA 5 mM, and Magnesium ATP 4 mM. The final concentration of vehicle used to dilute compounds was 0.33% DMSO in each well. Bicuculline (0.032 to 100 μM) was used as positive control inhibitor. GABA (15 μM) was used as agonist. […]
The compound addition sequence was the following: one addition of the EC80 concentration of GABA was added to establish baseline response. […] Peak inward currents in response to the GABA additions in the presence of a single concentration of compound were measured. […]

CYP3A4 = CYP3A4 induction assay in cryopreserved human hepatocytes; assay type: in vitro ADME
Experimental: The objective of the human hepatocyte assay is to characterize the induction potential of Compound of formula (I) by measuring the CYP3A4 activities after 3-days of hepatocytes treatment with culture medium alone or culture medium containing increasing concentration of NCE.
To this aim, cryopreserved human hepatocytes from a single donor are seeded on a 48 well collagen coated plate so that the final seeding density is 0.2×10^6 cells/well (final volume per well 0.25 mL). The cells are then incubated in seeding medium at 37° C., 95% humidity, 5% CO2 to allow the cells to attach. […]
For catalytic activity determination, solution of the CYP3A4 probe substrate, midazolam (final concentration 2.5 μM) is prepared in pre warmed assay medium. […] An aliquot of supernatant is diluted with deionised water and levels of 1-hydroxymidazolam is quantified using generic LC MS/MS methods.
The hepatocytes are solubilised in 0.1M sodium hydroxide at room temperature and protein content in each well determined using Pierce™ BCA Protein Assay Kit (Thermo Scientific) using bovine serum albumin as a standard.
The fold-induction (increase in CYP activity) is obtained by taking the ratio of the measured enzymatic activity obtained in hepatocytes treated with Compound of formula (I), over the one obtained in control hepatocytes treated with vehicle. […]

Emax at 10 µM (dopamine D1 receptor [1]): < 20%
Erel (relative efficacy) (dopamine D1 receptor [2]; maximal potentiation relative to dopamine maximum response (100%)): about 68%
EC50 (dopamine D1 receptor [2]; potentiation of cAMP in presence of EC20 dopamine (1.1 nM), LMtk cells expressing D1): ~7.94 nM and < 316 nM
inhibition at 10 µM [3]: < 0.1%
fold-induction value, times lower than positive control (Rifampicin) (CYP3A4; compound 1 μM vs Rifampicin 10 μM, 72 h, CYP3A4 activity (midazolam)): at least 7 times lower
induction potential, times lower than positive control (Rifampicin) (CYP3A4; highest fold-induction: compound at highest soluble concentration 3 μM vs Rifampicin 10 μM): about 4 times lower
Structure (SMILES): C[C@H]1c2cccc(C(C)(C)O)c2C[C@H](CO)N1C(=O)Cc1c(Cl)ccc2c1c(Cl)nn2C [compound of formula (I), 2-(3,5-dichloro-1-methyl-indazol-4-yl)-1-[(1S,3R)-3-(hydroxymethyl)-5-(1-hydroxy-1-methyl-ethyl)-1-methyl-3,4-dihydro-1H-isoquinolin-2-yl]ethanone]
